Like-named read-outs stand apart in the source and are kept apart here.
Molecular target: T1, Aromatase (Homo sapiens, UniProt P11511)
T1 construct: Microsomes of human placenta; from tissue; host or cells: human placenta, microsomes
T1 sequence (P11511 1-503): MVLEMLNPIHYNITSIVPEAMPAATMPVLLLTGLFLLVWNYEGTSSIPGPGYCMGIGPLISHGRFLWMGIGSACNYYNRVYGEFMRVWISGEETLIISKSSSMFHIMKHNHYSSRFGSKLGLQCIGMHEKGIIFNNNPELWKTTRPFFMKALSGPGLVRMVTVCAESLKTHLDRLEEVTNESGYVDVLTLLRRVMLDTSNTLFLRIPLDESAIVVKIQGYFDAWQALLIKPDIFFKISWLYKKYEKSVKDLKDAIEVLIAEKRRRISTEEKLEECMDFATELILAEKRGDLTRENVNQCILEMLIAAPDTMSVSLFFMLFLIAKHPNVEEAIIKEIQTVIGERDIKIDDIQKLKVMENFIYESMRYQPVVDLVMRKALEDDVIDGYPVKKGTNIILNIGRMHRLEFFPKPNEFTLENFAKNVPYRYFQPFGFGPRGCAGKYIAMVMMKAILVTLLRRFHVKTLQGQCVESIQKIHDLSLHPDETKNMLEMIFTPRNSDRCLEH
Assay: Aromatase-inhibiting activity (radiometric, H^14COOH release; method of Covey et al.)
Assay type: biochemical
Description: The aromatase-inhibiting activity was measured basically according to the method described in D. F. Covey et al: BBRC […], 81-86, 1988. The aromatase-inhibiting activity of the azole derivatives used in the present invention was evaluated in terms of 50% aromatase activity-inhibiting concentration (IC50) of the derivatives.
The aromatase-inhibiting activity of each compound was measured according to the method of Covey et al: BBRC, 157 (1), 81-86, 1988. Radioactivity of a by-product H^14 COOH released from a ^14 C-labeled substrate by the action of aromatase was measured to radiometrically determine aromatase-inhibiting activity of the compounds. The aromatase-inhibiting activity of the test compound is shown by 50% aromatase activity-inhibiting concentration (IC50) of the compound.
An aromatase reaction system of the composition shown below in 67 mM phosphate buffer solution (0.5 ml) was incubated at 37° C. for 30 minutes with shaking. Chloroform (5 ml) was added to the reaction solution to stop the reaction. The reaction solution was vigorously stirred and then centrifuged to recover the by-product (H^14 COOH) of the aromatase reaction in the aqueous layer. The aqueous layer (0.1 ml) was collected and mixed with a liquid scintillation cocktail (4 ml) to measure its radioactivity.
(1) Aromatase: Microsomes of human placenta (0.1 mg/ml, protein concentration).
(2) Substrate: [19-^14 C] 4-Androstene-3,17-dione (1×10^-6 M; 2 kBq/ml).
(3) Coenzymes: Nicotinamide adenine dinucleotide phosphate, reduced form (2×10^-3 M), glucose-6-phosphate (4×10^-3 M) and glucose-6-phosphate dehydrogenase (4 U/ml).
Radioactivity of the reaction system exclusive of (1) was supposed to be background radioactivity as 100% control of aromatase inhibition. Radioactivity of the reaction system exclusive of (4) was supposed to be that of negative control as 0% of aromatase inhibition. […] 4-Hyroxyandrostenedione was used as a reference compound.
The aromatase inhibiting activities (IC50) of the optical isomers (I-3 (-) and I-3 (+)) were determined in the same way as in Example 6.

[1] = Table 1, microsomes of human placenta, [19-14C] 4-androstene-3,17-dione 1×10^-6 M, 37° C., 30 minutes, read-out: IC50 (50% aromatase activity-inhibiting concentration)
[2] = read-out: IC50 of optical isomers, Example 7, same way as in Example 6

SMILES	IC50 [nM]	other results
O[C@@]1(Cc2ccc(F)cc2F)CCC[C@H]1Cn1cncn1 (relative stereo) [Compound I-8, 1-(2,4-Difluorobenzyl)-c-2-(1H-1,2,4-triazol-1-ylmethyl)cyclopentan-r-1-ol]	12	
CC(C)[C@](O)(CCn1ccnc1)c1ccc(Cl)cc1 [Compound I-1, (3R)-3-(4-chlorophenyl)-1-(1H-imidazol-1-yl)-4-methylpentan-3-ol]		IC50 [1]: 10 nM
O[C@@]1(Cc2ccccc2)CCC[C@@H]1Cn1ccnc1 (relative stereo) [Compound I-5, 1-(Benzyl)-t-2-(1H-imidazol-1-ylmethyl)cyclopentan-r-1-ol]		IC50 [1]: 50 nM
O[C@@]1(Cc2ccc(Cl)cc2)CCC[C@@H]1Cn1ccnc1 (relative stereo) [Compound I-4, 1-(4-chlorobenzyl)-t-2-(1H-imidazol-1-ylmethyl)cyclopentan-r-1-ol]	20	
O[C@]1(Cc2ccc(Cl)cc2)CCC[C@@H]1Cn1ccnc1 (stereo in doubt) [I-3 (+), 1-(4-chlorobenzyl)-c-2-(1H-imidazol-1-ylmethyl)cyclopentan-r-1-ol]		IC50 [2]: 80 nM
CC1(C)C[C@@H](Cc2ccc(Cl)cc2)[C@](O)(Cn2cncn2)C1 (relative stereo) [Compound I-20, c-2-(4-Chlorobenzyl)-4,4-dimethyl-1-(1H-1,2,4-triazol-1-ylmethyl)cyclopentan-r-1-ol]	40	
Fc1cccc2c1C[C@H]1CCC[C@@]1(Cn1cncn1)O2 [Compound I-18, (3aR,9aR)-8-Fluoro-2,3,9,9a-tetrahydro-3a(1H)-(1H-1,2,4-triazol-1-ylmethyl)cyclopenta[b][1]benzopyran]	13	
O[C@@]1(Cc2ccc(Cl)cc2Cl)CCC[C@H]1Cn1cncn1 (relative stereo) [Compound I-7, 1-(2,4-Dichlorobenzyl)-c-2-(1H-1,2,4-triazol-1-ylmethyl)cyclopentan-r-1-ol]	10	
C[C@]12CCC(=O)C(O)=C1CC[C@@H]1[C@@H]2CC[C@]2(C)C(=O)CC[C@@H]12 [Reference, 4-Hyroxyandrostenedione, reference compound]	20	
Clc1ccc2c(c1)O[C@]1(Cn3cncn3)CCC[C@@H]1C2 [Compound I-17, (3aR,9aR)-6-Chloro-2,3,9,9a-tetrahydro-3a(1H)-(1H-1,2,4-triazol-1-ylmethyl)cyclopenta[b][1]benzopyran]	30	
O[C@@]1(c2ccc(Cl)cc2)CCC[C@H]1Cn1ccnc1 (relative stereo) [Compound I-10, 1--(4-Chlorophenyl)-c-2-(1H-imidazol-1-ylmethyl)cyclopentan-r-1-ol]		IC50 [1]: 30 nM
CC1(C)CC[C@@H]2Cc3ccc(Cl)cc3O[C@]21Cn1ccnc1 [Compound I-15, (3aR,9aR)-6-Chloro-2,3,9,9a-tetrahydro-3a(1H)-(1H-imidazol-1-ylmethyl)-3,3-dimethylcyclopenta[b][1]benzopyran]		IC50 [1]: 45 nM
CC(C)[C@@](O)(CCn1ccnc1)Cc1ccc(Cl)cc1 [Compound I-2, (3S)-3-(4-chlorobenzyl)-1-(1H-imidazol-1-yl)-4-methylpentan-3-ol]	10	
CC1(C)CC[C@@H]2Cc3ccc(Cl)cc3O[C@]21Cn1cncn1 [Compound I-14, (3aR,9aR)-6-chloro-2,3,9,9a-tetrahydro-3,3-dimethyl-3a(1H)-(1H-1,2,4-triazol-1-ylmethyl)cyclopenta[b][1]benzopyran]	12	
O[C@@]1(c2ccc(Cl)cc2)CCC[C@H]1Cn1cncn1 (relative stereo) [Compound I-12, 1-(4-Chlorophenyl)-c-2-(1H-1,2,4-triazol-1-ylmethyl)cyclopentan-r-1-ol]	10	
O[C@]1(Cc2ccc(Cl)cc2)CCC[C@@H]1Cn1ccnc1 (stereo in doubt) [I-3 (-), 1-(4-chlorobenzyl)-c-2-(1H-imidazol-1-ylmethyl)cyclopentan-r-1-ol]		IC50 [2]: 4 nM
O[C@@]1(Cc2ccc(Cl)cc2)CCC[C@H]1Cn1ccnc1 (stereo in doubt) [Compound I-13, nitrate of 1-(4-chlorobenzyl)-c-2-(1H-imidazol-1-ylmethyl)-cyclopentan-r-1-ol]		IC50 (read-out: IC50 (50% aromatase activity-inhibiting concentration), Table 1, microsomes of human placenta, [19-14C] 4-androstene-3,17-dione 1×10^-6 M, 37° C., 30 minutes): 55 nM
O[C@@]1(Cc2ccc(Cl)cc2)CCC[C@H]1Cn1ccnc1 (stereo in doubt) [Compound I-3, 1-(4-chlorobenzyl)-c-2-(1H-imidazol-1-ylmethyl)cyclopentan-r-1-ol]	40	
O[C@@]1(Cc2ccc(Cl)cc2)CCC[C@H]1Cn1cncn1 (relative stereo) [Compound I-6, 1-(4-Chlorobenzyl)-c-2-(1H-1,2,4-triazol-1-ylmethyl)cyclopentan-r-1-ol]	40	
CC1(C)C[C@@H](Cc2ccc(Cl)cc2)[C@](O)(Cn2ccnc2)C1 (relative stereo) [Compound I-19, c-2-(4-Chlorobenzyl)-1-(1H-imidazol-1-ylmethyl)-4,4-dimethylcyclopentan-r-1-ol]	65	
O[C@@]1(Cc2ccc(-c3ccccc3)cc2)CCC[C@H]1Cn1cncn1 (relative stereo) [Compound I-9, 1-(p-Biphenylmethyl)-c-2-(1H-1,2,4-triazol-1-ylmethyl)cyclopentan-r-1-ol]	13	
O[C@@]1(c2ccccc2)CCC[C@H]1Cn1ccnc1 (relative stereo) [Compound I-11, 1-(Phenyl)-c-2-(1H-imidazol-1-ylmethyl)cyclopentan-r-1-ol]		IC50 [1]: 35 nM
Clc1ccc2c(c1)O[C@]1(Cn3ccnc3)CCC[C@@H]1C2 [Compound I-16, (3aR,9aR)-6-Chloro-2,3,9,9a-tetrahydro-3a(1H)-(1H-imidazol-1-ylmethyl)cyclopenta[b][1]benzopyran]		IC50 [1]: 30 nM
